Test results reported in patent US20120316199A1, “COMPOSITIONS AND METHODS FOR TREATING, CONTROLLING, REDUCING, OR AMELIORATING INFLAMMATORY PAIN” (priority 2011, published 2012).
Where “and” joins values, the source holds several entries; their conditions need not be identical. Identical values can stand only once. Entries after “also recorded” stand apart in the source; their conditions may differ.

Experiments:
pupillary diameter = assay: Pupillary diameter measurement, rabbit paracentesis model; format: in vivo, Rabbit (New Zealand); settings: for Pupillary diameter T2: −5 min: 5 min before the first paracentesis; for Pupillary diameter T2: −5 min / Pupillary diameter T3: +115 min / Pupillary diameter T1: −180 min: raw data per eye; for Pupillary diameter T3: +115 min: 5 min before the second paracentesis; for Pupillary diameter T1: −180 min: basal; for Mean (mm) Δ(T3 − T1) of pupillary diameter: group mean, n=8 eyes
[1] = test system: iris and conjunctival vessels, anterior chamber; assay: Clinical evaluation by slit lamp (clinical score), rabbit paracentesis model; format: in vivo, Rabbit (New Zealand); parameters: key to Clinical Score −180 min / Clinical Score −5 min / Clinical Score +115 min: 0=normal; 1=discrete dilatation of iris and conjunctival vessels; 2=moderate dilatation of iris and conjunctival vessels; 3=intense iridal hyperemia with flare in the anterior chamber; 4=intense iridal hyperemia with flare in the anterior chamber and presence of fibrinous exudates; settings: for Clinical Score −5 min: 5 min before the first paracentesis; for Clinical Score −5 min / Clinical Score +115 min / Clinical Score −180 min: raw data per eye; for Clinical Score +115 min: 5 min before the second paracentesis; for Clinical Score −180 min: basal
[2] = test system: PGE2 in the aqueous humor; assay: Prostaglandin E2 (PGE2) measurement in aqueous humor, rabbit paracentesis model; format: in vivo, Rabbit (New Zealand); settings: for PGE2 level in aqueous humor, Mean: second paracentesis, group mean
Experimental: (§1) Each rabbit was placed in a restraint device and tagged with the alphanumeric code. The formulations were instilled (50 μl) into the conjunctival sac of both eyes 180, 120, 90 and 30 min before the first paracentesis; then 15, 30, 90 min after the first paracentesis. To perform the first paracentesis the animals were anaesthetized by intravenous injection of 5 mg/kg Zoletil® (Virbac; 2.5 mg/kg tiletamine HCl and 2.5 mg/kg zolazepam HCl) and one drop of local anesthetic (Novesina®, Novartis) was administered to the eye. Anterior chamber paracentesis was performed with a 26 G needle attached to a tuberculin syringe; the needle was introduced into the anterior chamber through the cornea, taking care not to damage the tissues. Two hours after the first paracentesis, the animals were sacrificed with 0.4 ml Tanax® (Intervet International B.V.) and the second paracentesis was performed. About 100 μl of aqueous humor were removed at the second paracentesis. Aqueous humor was immediately split in four aliquots and stored at −80° C. until analysis. Then both eyes were enucleated and the iris-ciliary body was carefully excised, placed in polypropylene tubes, and stored at −80° C. until analysis.
For the quantitative determination of PGE2 in the aqueous humor we used the PGE2 Immunoassay kit (R&D Systems; Cat. No. KGE004; Lot. No. 240010). Eleven microliters or 16 μl of aqueous humor were diluted to 110 μl or 160 μl with the calibrator diluent solution provided with the kit. One hundred microliters of samples and of standards were load into a 96-well plate and recorded in a plate layout. Samples were treated following the assay procedure described in the kit. A microplate reader (GDV, Italy; model DV 990 B/V6) set at 450 nm (wavelength correction at 540 nm) was used for making the calibration and analyzing the samples.
(§2) Pupillary diameter, PGE2, protein, PMN, and MPO were expressed as mean±SEM. Statistical analysis was performed using one way ANOVA followed by a Newman-Keuls post hoc test. Clinical score was expressed as % of eyes and the statistical analysis was performed using Kruskal-Wallis followed by a Dunn post hoc test. P<0.05 was considered statistically significant in both cases. Prism 4 software (GraphPad Software, Inc.) was used for the analysis and graphs.

[3] = test system: protein concentration in the aqueous humor; assay: Protein measurement in aqueous humor, rabbit paracentesis model; format: in vivo, Rabbit (New Zealand); settings: for Protein level in aqueous humor, Mean / Protein level in aqueous humor, raw data: second paracentesis; for Protein level in aqueous humor, Mean: group mean; for Protein level in aqueous humor, raw data: per eye
Experimental: as §1
For protein concentration determination in the aqueous humor we used the Protein Quantification Kit (Fluka; Cat. No. 77371; Lot. No. 1303129). Five microliters of aqueous humor were diluted to 100 μl with water. Twenty microliters of samples and of standards were load into a 96-well plate and recorded in a plate layout. Samples were treated following the assay procedure described in the kit. A microplate reader (GDV, Italy; model DV 990 B/V6) set at 670 nm was used for making the calibration and analyzing the samples.
as §2

[4] = test system: MPO activity in iris-ciliary body; assay: Myeloperoxidase (MPO) activity in iris-ciliary body, rabbit paracentesis model; format: in vivo, Rabbit (New Zealand); settings: for MPO activity in iris-ciliary body: individual samples collected after the second paracentesis; for MPO activity in iris-ciliary body, Mean: after the second paracentesis, group mean
Experimental: as §1
The activity of MPO was measured as previously described by Williams et al.[5] The iris-ciliary bodies were carefully dried, weighed and immersed in 1 ml of hexa-decyl-trimethyl-ammonium bromide solution. Then, the samples were sonicated for 10 sec on ice by a ultrasound homogenizer (HD 2070, Bandelin electronic), freeze-thawed three times, sonicated for 10 sec and centrifuged at 14,000 g for 10 min to remove cellular debris. An aliquot of the supernatant (40-200 μl) was diluted to 3 ml with the o-dianisidine 2HCl/H2O2 solution. The change in absorbance at 460 nm was continuously monitored for 5 min by a spectrophotometer (UV/Vis Spectrometer Lambda EZ 201; Perkin Elmer). The slope of the line (Δ/min) was determined for each sample and used to calculate the number of units of MPO in the tissue as follows:
Values were expressed as units of MPO/g of tissue.
as §2

[5] = test system: intraocular pressure (IOP); assay: Intraocular pressure in New Zealand White rabbits, topical dosing four times daily; format: in vivo
Experimental: (§3) On Days 1-31, animals received daily topical doses of the appropriate test article into the right eye. Animals were dosed four times per day, with doses administered 2 hours apart. Doses were administered using a calibrated 50-μL pipette. The eyelids were held close for 10 seconds immediately following dosing. The time of each dose administration was recorded.
Intraocular pressure (“IOP”) was determined for both eyes of each animal on Days 3, 5, 10, 12, 16, 18, 22, 24, 26, 30, and 32. IOP was evaluated with a Medtronic Solan, Model 30 classic pneumatonometer. Proparacaine hydrochloride 0.5% (1 drop) was delivered to each eye prior to IOP measurement. IOP was measured on Monday. Wednesday, and Friday of each week. A two-point diurnal curve was established: IOP was recorded at 8 a.m. and 12 p.m. on Day 3, and at 8 a.m. and 2 p.m. on later days, with a ±1 hour range for each of these times. The time of the measurements was recorded.
Descriptive statistics were prepared for IOP data of each treatment group (left and right eyes separately) at each measurement interval. The statistics included the number of observations (“N”) mean, standard deviation (“STD”), and standard error (“SEM”). Statistical analyses were conducted on IOP results using Statistical Analysis Systems (SAS Institute. Inc., Cary, N.C. V8.0). Parameters were evaluated using analysis of variance/GLM Procedure followed by Tukey's Standardized Range Test (Tukey, 1985) for post hoc comparisons of group means. The level of significance was set at a probability of p<0.05 for all statistical procedures. Group IOP means were compared at each interval, with left and right eyes compared separately.

[6] = test system: New Zealand White rabbits; assay: Mortality/morbidity in New Zealand White rabbits, topical dosing four times daily; format: in vivo
Experimental: as §3
Animals determined to be moribund were euthanized with an intravenous injection of commercial euthanasia solution.

rabbit eyes = assay: Ophthalmic observations (slit lamp, McDonald Shadduck scores) in New Zealand White rabbits; format: in vivo; parameters: key to Ophthalmic Observation (Slit-Lamp): AN = Appeared normal
Experimental: Prior to placement on study, each animal underwent a pre-treatment ophthalmic examination (slit lamp and indirect ophthalmoscopy). Observations were scored according to the McDonald Shadduck system and recorded using a standardized data collection sheet.
as §3
Ophthalmic examinations (slit lamp) were performed prior to the first dosing on Days 5, 12, 22, 26, and 33. Ocular findings were scored according to the McDonald Shadduck system and recorded using a standardized data collection sheet.

[7] = 0.1% formulation, +115 min, N=8 eyes
[8] = 0.1% formulation, −5 min, N=8 eyes
[9] = Group A, 0.1% (0.05 mg/dose) 4 x daily, individual rabbits
[10] = Group A, 0.1%, treated right eye, individual animals

Compound: C[C@@H]1C[C@H]2[C@@H]3CCC4=CC(=O)C=C[C@]4(C)[C@@]3(F)[C@@H](O)C[C@]2(C)[C@@]1(O)C(=O)CO [Dex, dexamethasone, reference compound]
- Pupillary diameter T2: −5 min (pupillary diameter; 0.1% formulation): 5.5 mm and 6.5 mm and 6.0 mm and 7.0 mm and 7.5 mm
- Pupillary diameter T3: +115 min (pupillary diameter; 0.1% formulation): 5.5 mm and 6.0 mm and 4.5 mm and 5.0 mm and 6.5 mm
- Pupillary diameter T1: −180 min (pupillary diameter; 0.1% formulation): 6.0 mm and 7.0 mm and 5.5 mm and 6.5 mm
- Mean (mm) Δ(T3 − T1) of pupillary diameter (pupillary diameter; 0.1% formulation): −0.8 mm
- Clinical Score −5 min ([1]; 0.1% formulation): 0 and 1
- Clinical Score +115 min ([1]; 0.1% formulation): 1 and 3
- Percentage of eyes with clinical score 1 [1, 7]: 75%
- Percentage of eyes with clinical score 3 [1, 7]: 25%
- Clinical Score −180 min ([1]; 0.1% formulation): 0
- Percentage of eyes with clinical score 0 [1, 8]: 75%
- Percentage of eyes with clinical score 1 [1, 8]: 25%
- Percentage of eyes with clinical score 0 ([1]; 0.1% formulation, −180 min (basal), N=8 eyes): 100%
- PGE2 level in aqueous humor, Mean ([2]; 0.1% formulation): 2.263 ng/mL
- Protein level in aqueous humor, Mean ([3]; 0.1% formulation): 33.457 mg/mL
- Protein level in aqueous humor, raw data ([3]; 0.1% formulation): 31.31 mg/mL and 31.81 mg/mL and 35.95 mg/mL and 37.15 mg/mL and 32.12 mg/mL and 32.40 mg/mL
- MPO activity in iris-ciliary body ([4]; 0.1% Dex): 1.32 Unit/g
- MPO activity in iris-ciliary body, Mean ([4]; 0.1% formulation): 0.618 MPO Unit/g
- Mean IOP of the group compared with corresponding eyes of other groups ([5]; 0.1% dexamethasone (Group A), on several days, one or both eyes, p<0.05): significantly higher
- Course of mean IOP after treatment began ([5]; left and right eyes, dexamethasone 0.1% (Group A), BOL-303242-X 10, 5, 1 mg/g (Groups B-D), four times daily): increased sharply
- Mortality (rabbits that died or were euthanized between Days 11 and 33) ([6]; 0.05 mg/dose (0.1% dexamethasone suspension or 1 mg/g BOL-303242-X), right eye four times daily, Days 1-31): Six of ten
- Day of Death (day euthanized or found dead) [6, 9]: 25 (2×) and 27 (2×) and 23 and 13
- Recorded Notes on death [6, 9]: Euthanized. Very sick/poor health; left (untreated) eye; also recorded: Euthanized due to severe profuse hemorrhagic diarrhea; also recorded: Found dead. No rigor mortis present
- Mortality rate ([6]; dexamethasone suspension 0.05 mg/dose four times daily up to 31 days): 6 deaths per 10 rabbits
- Conjunctival congestion Score (rabbit eyes; [10]): 1
- Ophthalmic Observation (Slit-Lamp) (rabbit eyes; [10]): AN
- Ophthalmic observation associated with unilateral topical instillation (rabbit eyes; four times daily up to 31 days, BOL-303242-X 0.05, 0.25, or 0.5 mg/dose, dexamethasone 0.05 mg/dose): sporadic mild conjunctival congestion

Compound: CC(C(=O)O)c1ccc(-c2ccccc2)c(F)c1 (stereo not shown) [F, flurbiprofen]
- Pupillary diameter T2: −5 min (pupillary diameter; 0.03% formulation): 6.0 mm and 6.5 mm and 7.0 mm and 5.5 mm
- Pupillary diameter T3: +115 min (pupillary diameter; 0.03% formulation): 4.0 mm and 3.5 mm and 5.5 mm and 5.0 mm and 4.5 mm and 6.0 mm
- Pupillary diameter T1: −180 min (pupillary diameter; 0.03% formulation): 5.0 mm and 7.0 mm and 6.0 mm and 5.5 mm
- Mean (mm) Δ(T3 − T1) of pupillary diameter (pupillary diameter; 0.03% formulation): −0.9 mm
- Clinical Score −5 min ([1]; 0.03% formulation): 0
- Clinical Score +115 min ([1]; 0.03% formulation): 2
- Percentage of eyes with clinical score 2 ([1]; 0.03% formulation, +115 min, N=8 eyes): 100%
- Clinical Score −180 min ([1]; 0.03% formulation): 0
- Percentage of eyes with clinical score 0 ([1]; 0.03% formulation, −5 min, N=8 eyes): 100%
- Percentage of eyes with clinical score 0 ([1]; 0.03% formulation, −180 min (basal), N=8 eyes): 100%
- PGE2 in aqueous humor, statistical significance versus CTR ([2]; 0.03% formulation, p<0.05): statistically significant versus CTR
- PGE2 level in aqueous humor, Mean ([2]; 0.03% formulation): 1.189 ng/mL
- Protein in aqueous humor, statistical significance vs CTR ([3]; 0.03% formulation, p<0.001): statistical significance
- Protein level in aqueous humor, Mean ([3]; 0.03% formulation): 20.910 mg/mL
- Protein level in aqueous humor, raw data ([3]; 0.03% formulation): 20.78 mg/mL and 28.80 mg/mL and 23.41 mg/mL and 20.21 mg/mL and 17.53 mg/mL and 15.12 mg/mL and 20.52 mg/mL
- MPO activity in iris-ciliary body ([4]; 0.03% F): 1.27 Unit/g
- MPO activity in iris-ciliary body, Mean ([4]; 0.03% formulation): 0.906 MPO Unit/g
